In patent publication US7049321B2, “Methods and pharmaceutical compositions for treatment of central and peripheral nervous system disorders and compounds useful therefor” (Israel Institute for Biological Research, priority 2002, dated 2006):

Tests used:
[1] = system: rat primary cerebral cortex cell cultures; experiment: APPs secretion in rat primary cortical cell cultures; type: cell-based; conditions: 100 μm
rabbits with nbm lesions = experiment: CSF and cortical Aβ in hypocholinergic (nbm-lesioned) rabbits; type: in vivo, New Zealand White rabbits; conditions: 4 weeks
Text: It is known that experimentally-induced cortical cholinergic denervation results in biochemical elevations of cortical Aβ concentrations and in histologic Aβ deposition (Beach et al, Neurosci Lett 283: 9–12, 2000), and that administration of muscarinic Ml-selective agents to normal animals decreases CSF AP concentrations {Beach et al Brain Res. 905: 220–223, 2001}.
Twenty-eight female New Zealand White rabbits, about 2.5 kg each (young adults) were used. Twenty-one received lesions of the cholinergic nucleus basalis magnocellularis (nbm). The lesion was accomplished with unilateral i.c.v. injections of an immunotoxin consisting of the ribosomal toxin saporin conjugated to the monoclonal antibody ME20.4, which is directed against the low-affinity neurotrophin receptor, p75. The ME20.4 antibody is made against monkey p75 and also recognizes rabbit p75. The dose of immunotoxin was 32.4 μg in 12 μl; this was delivered to the right lateral ventricle 2 mm lateral to the bregma. Seven animals received i.c.v. injections of sterile normal saline (sham lesion). Animals which received the immunotoxin were divided into 3 groups of 7. […] Another group received physostigmine hemisalicylate in normal saline by s.c. osmotic pump at a daily dose of 3 mg/kg. The third group received twice-daily sterile saline s.c. injections. The animals which received a sham lesion were implanted with s.c. osmotic pumps filled with sterile normal saline. Animals were euthanized 4 weeks after surgery. […] Cerebrospinal fluid was taken from the cisterna magna of all animals at the time of sacrifice; the brain was removed and sliced coronally into 0.5 cm slices. […] The other slices were frozen on sheets of dry ice (the other slices are the non-fixed 0.5 cm coronal slices of cerebrum, brainstem and cerebellum).

[2] = system: rat primary hippocampal cell cultures; experiment: APPs secretion in rat primary hippocampal cell cultures; type: cell-based; conditions: 100 μm
M1 receptors = biological target: T1, M1 receptors (Rattus norvegicus, UniProt P08482); experiment: [3H]PZ competition binding to rat cortical membranes; conditions: rat cortex
T1 construct: from tissue; host or cells: rat cortical membranes
T1 sequence (P08482 1-460): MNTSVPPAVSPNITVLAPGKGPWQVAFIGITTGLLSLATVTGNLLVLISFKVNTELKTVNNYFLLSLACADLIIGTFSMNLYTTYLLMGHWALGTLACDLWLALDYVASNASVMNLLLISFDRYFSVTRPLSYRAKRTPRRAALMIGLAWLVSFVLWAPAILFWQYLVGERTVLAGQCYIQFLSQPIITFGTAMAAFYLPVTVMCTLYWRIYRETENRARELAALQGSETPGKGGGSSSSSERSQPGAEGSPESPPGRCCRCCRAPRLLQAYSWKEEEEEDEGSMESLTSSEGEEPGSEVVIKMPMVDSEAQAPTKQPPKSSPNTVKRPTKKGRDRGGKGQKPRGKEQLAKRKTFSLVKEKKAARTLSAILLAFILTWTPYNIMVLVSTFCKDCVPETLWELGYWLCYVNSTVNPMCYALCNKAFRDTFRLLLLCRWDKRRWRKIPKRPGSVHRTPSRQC
Text: Pirenzepine (PZ), a muscarinic antagonist, binds preferentially to M1 receptors while OXO-M binds to all mAChR subtypes non-selectively; the ratio between the Ki values for PZ versus that of OXO-M may be indicative of the selectivity of the tested compound. The smaller the ratio, the more M1 selective is the tested compound. […] The OXO-M/PZ ratio is ˜0.36 showing a moderately high selectivity for the M1 receptor.

muscarinic receptor = experiment: [3H]OXO-M competition binding; conditions: rat cortex
M2 mAChR = biological target: T2, M2 mAChR (Homo sapiens, UniProt P08172); experiment: Intracellular Ca increase in modified cell cultures, M2; type: cell-based
T2 construct: expressed in transfected cells; host or cells: 'modified cell cultures' giving a Ca increase; modification not described
T2 sequence (P08172 whole entry): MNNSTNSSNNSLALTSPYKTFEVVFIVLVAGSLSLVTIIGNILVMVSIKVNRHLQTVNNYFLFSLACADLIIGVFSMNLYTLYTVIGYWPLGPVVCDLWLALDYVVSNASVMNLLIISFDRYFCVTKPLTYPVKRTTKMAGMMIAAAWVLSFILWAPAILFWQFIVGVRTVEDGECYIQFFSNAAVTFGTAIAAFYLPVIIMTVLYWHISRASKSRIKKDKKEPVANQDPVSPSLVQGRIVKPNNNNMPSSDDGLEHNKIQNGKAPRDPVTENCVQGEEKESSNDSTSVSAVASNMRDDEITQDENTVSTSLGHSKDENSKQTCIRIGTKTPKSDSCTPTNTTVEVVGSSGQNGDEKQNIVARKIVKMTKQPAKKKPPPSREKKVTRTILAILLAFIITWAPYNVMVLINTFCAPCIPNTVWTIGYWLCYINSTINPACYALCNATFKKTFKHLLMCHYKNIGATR

CNC(=O)Oc1ccc2c(c1)[C@]1(C)CCN(C)[C@@H]1N2C [physostigmine, reference compound]
APPs secretion, activity in words [1]: inactive
Histologic Aβ deposition, % of the lesioned, untreated group (rabbits with nbm lesions): 6.4%
APPs secretion, activity in words [2]: inactive

CC[C@H]1SC2(CCNCC2)NC1=O [AF291, (R)-2-Ethyl-1-thia-4,8-diaza-spiro[4.5]decan-3-one]
Ki (M1 receptors): 10.7 µM
Ki (muscarinic receptor): 6.56 µM

C[N+](C)(C)CCOC(N)=O [carbachol, reference compound]
Increase in activity on the M2 mAChR (M2 mAChR): 8 fold
